These results are taken from patent US10881677B2, “Composition for modulating IRAK1” (Agency for Science, Technology and Research, priority 2015, dated 2021).

Experiment [1] relates to parental MDA-MB-231 cells. The experiment can be described thus: Cell viability IC50 curves, sensitivity of parental cells to agents. It is filed as cell-based. To be noted: parental MDA231. An excerpt: (§1) FIG. 17. (a). IC50 curves showing cell viability after treatment with paclitaxel (PTX), vincristine (VCR), gemcitabine, doxorubicin (ADR), cisplatin, 5-fluorouracil (5-FU) and pacritinib in parental and pacitaxel-treated MDA-MB-231 (MDA231-PR) cells. (b). Graphical representation of relative sensitivities. (c).
(§2) For cell proliferation assay, the optimal cell seeding was first determined empirically for all cell lines by examining the growth of a wide range of seeding densities in a 96-well format to identify conditions that permitted proliferation for 7 days. Cells were then plated at the optimal seeding density 24 h before siRNA or drug treatment in triplicate. Plates were incubated for 7 days at 37° C. in 5% CO2. Cells were then lysed with CellTiter-Glo (CTG) (Promega, Madison, Wis.) and chemiluminescent signal was detected with a microplate reader on Day 0, 1, 3, 5 and 7. In addition, an untreated plate of cells was harvested at the time of drug or siRNA addition (T0) to quantify the starting number of cells. CTG values obtained after the 7 day treatment were expressed as percentages of the T0 value and plotted against time of treatment.

In a further experiment the test system is MDA231-PR cells. The experiment can be described thus: Cell viability IC50 curves, sensitivity of paclitaxel-resistant cells to agents. The format is cell-based. The following applies: for sensitivity of paclitaxel-resistant cells to agent: paclitaxel-treated/resistant cells over-expressing p-IRAK1; for shift of the IC50 curve: MDA231-PR versus parental MDA-MB-231.
Source text: as §1, §2

The test system of experiment [2] is SUM159-PR and MDA231-PR cells. The experiment can be described thus: Apoptosis by FACS analysis of Sub-G1 cells. The format is cell-based. To be noted: for sensitization of Paclitaxel for apoptosis: Paclitaxel-resistant cells (SUM159-PR, MDA231-PR), inhibitor together with Paclitaxel. Here is the method: Cell cycle analysis was done by DNA content quantification to quantify the sub-G1 population which is reflective of the extent of cell death. Briefly, the cells were fixed with 70% ethanol and stained with propidium iodide (50 μg/ml) staining. The stained cells were analyzed by FACScalibur (BD Bioscience) and quantified by using CellQuest software (BD bioscience).
Background: A flow cytometer gives signals particle by particle.

In the next experiment the target is IRAK1 (Homo sapiens, UniProt P51617). To be noted: cited from earlier work; for ability to inhibit IRAK1: recently reported (ref 38), in vitro and in vivo.
Sequence of IRAK1 (P51617 whole entry, species assumed): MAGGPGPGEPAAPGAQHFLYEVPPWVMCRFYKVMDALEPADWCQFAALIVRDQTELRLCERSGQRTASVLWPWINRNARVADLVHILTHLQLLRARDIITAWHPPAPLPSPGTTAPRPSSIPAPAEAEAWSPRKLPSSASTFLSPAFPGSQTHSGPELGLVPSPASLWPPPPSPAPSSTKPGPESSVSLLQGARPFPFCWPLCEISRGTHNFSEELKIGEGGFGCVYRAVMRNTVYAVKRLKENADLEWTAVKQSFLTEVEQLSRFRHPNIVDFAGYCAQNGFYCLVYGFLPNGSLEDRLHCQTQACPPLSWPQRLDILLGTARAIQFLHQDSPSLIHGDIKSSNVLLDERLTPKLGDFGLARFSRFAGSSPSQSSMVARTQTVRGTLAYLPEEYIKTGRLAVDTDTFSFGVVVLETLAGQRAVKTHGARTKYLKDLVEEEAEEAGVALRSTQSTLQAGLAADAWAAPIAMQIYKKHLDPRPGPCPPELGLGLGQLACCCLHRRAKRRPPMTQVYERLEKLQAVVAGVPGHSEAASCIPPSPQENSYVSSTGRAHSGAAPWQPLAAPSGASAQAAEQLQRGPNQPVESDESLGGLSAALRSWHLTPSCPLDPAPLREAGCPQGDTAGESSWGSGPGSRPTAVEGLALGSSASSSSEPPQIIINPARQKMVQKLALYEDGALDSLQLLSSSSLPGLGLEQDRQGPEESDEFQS
For experiment [3], the system named is MDA231 and SUM159 parental and Paclitaxel-resistant sublines (PR). The experiment can be described thus: Cell viability of parental and Paclitaxel-resistant sublines, combination treatment. The format is cell-based. To be noted: MDA231-PR cells, in combination with PTX. Here is the method: as §2
For experiment [4], the system named is BT549, MB436, MB468, MDA231 and MDA231-LM2 cells. The experiment can be described thus: Mammosphere formation assay. The format is cell-based. To be noted: Ginsenosides CK and Rb1. Here is the method: Active growing cells were treated with 0.05% trypsin for 10 minutes then passed through […] cell strainer to achieve single cell suspension. Cells were plated (MDA231: 1×10^4; MB436: 3×10^4; MB468: 4×10^4 cells/well, BT549: 3×10^4, MDA231-LM2: 3×10^4) seeded in 6-well ultra-low attachment plates (Corning, Corning, N.Y., cat: CLS3471) in Mammocult medium (Stem cell Technologies, Vancouver, BC, Canada), supplemented with fresh hydrocortisone (0.51 μg/ml) and heparin (1:500). Tumorspheres were cultured for 7 days prior to being counted and photographed. Imaging and quantification were done using GelCount™ apparatus and associated software (Oxford Optronix, Abingdon, UK). For serial passages of tumorsphere formation assay, the spheres were collected by gentle centrifugation, dissociated to single cells for passaging tumorspheres every 14 days and counted. Tumorspheres were photographed and quantified 7-12 days later using a GelCount Colony Counter after staining with INT.

The target of the next experiment is T1, p-IRAK1 (T209) (Homo sapiens, UniProt P51617).
T1 construct: The whole cell lysate were extracted with the NE-PER kit (Pierce Biotechnology) and subjected to immunoprecipitation using 2 μg total-IRAK1 antibody; endogenous in cells; host or cells: TNBC cell lines (BT549, MB436, MB468, MDA231, MDA231-LM2, SUM159 and paclitaxel-resistant sublines)
T1 sequence (P51617 whole entry): as the sequence (P51617 whole entry, species assumed) above
The experiment can be described thus: Western blot of p-IRAK1 in immunoprecipitated IRAK1. The format is cell-based. The following applies: for IRAK1 signaling activated by chemotherapeutic agents: discussion statement; for induction of p-IRAK1 by chemotherapeutic agent: MDA231 (also SUM159) cells, PTX 5 nM, ADR 2 μM, Cisplatin 5 μM, up to 48 hours. Here is the method: (§3) Western Blotting was performed as described previously (8). IRAK1 (Cat no: #4359), IRAK4 (Cat no.: 4363), cleaved PARP (Cat no.: #9541), p38 MAPK (Cat no.: #9212), phospho-p38 MAPK (T180/Y182) (Cat no.: #9211), phospho-NF-KappaB p65 (S536) (Cat no. #3031) were purchased from Cell Signaling (Danvers, Mass.). Phospho-IRAK1 (T209) antibody was purchased from Assay Biotech (Sunnyvale, Calif., Cat no.: A1074) and phospho-IRAK1 (S376) antibody from Genetex (Irvine, Calif., Cat no.: GTX50994). MCL-1 antibody was purchased from Santa Cruz Biotechnology (Santa Cruz, Calif., Cat no.: sc-819). Actin was purchased from Sigma-Aldrich (St Louis, Mo., Cat no.: A5441). Detection of bands was performed with the ChemiDoc™ MP Imaging Systems (Bio-Rad, Hercules, Calif.) and bands were subjected to further densitometric analysis with Image Lab software (Version 4.1, Bio-rad, Hercules, Calif.).
Co-IP was performed as described previously (9). The whole cell lysate were extracted with the NE-PER kit (Pierce Biotechnology) and subjected to immunoprecipitation using 2 μg total-IRAK1 antibody (Santa Cruz Biotech, Santa Cruz, Calif., Cat no.: sc-7883). The precipitated protein complex was captured using protein A-Agarose beads (Roche) and extensively washed with the washing buffer (50 mM Tris-HCl, 150 mM NaCl, 0.1% triton). The precipitated proteins were dissolved in SDS sample buffer along with 3 mM DTT, and subjected to immunoblotting analysis. Phospho-IRAK1 (T209) (Assay Biotechnology, Sunnyvale, Calif., Cat no.: A1074) was used for detection.

Experiment [5] concerns p38-MCL-1 signaling in SUM159-PR cells. The experiment can be described thus: Western blot of p-p38, MCL-1 and cleaved PARP. It is filed as cell-based. The following applies: inhibitor with Paclitaxel. Here is the method: as §3

Each structure is given as a SMILES string. “Also recorded” adds a separate entry of the source.

Take `O=c1[nH]cc(F)c(=O)[nH]1` [5-fluorouracil]: in experiment [1], the “response of parental cells to agent” value is recorded as “poor”. Besides, the “sensitivity of paclitaxel-resistant cells to agent” value (“sensitivity” below) in the experiment on MDA231-PR cells was “poor”.

In the case of `Cc1ccc(S(=O)(=O)/C=C/C#N)cc1` [Bay 117082, BAY-11-7082], the “sensitization of Paclitaxel for apoptosis” value (“sensitization of Paclitaxel” for short) in experiment [2] is listed as “failed to sensitize”.

`CC(C)=CCC[C@](C)(O[C@@H]1O[C@H](CO)[C@@H](O)[C@H](O)[C@H]1O)[C@H]1CC[C@]2(C)[C@@H]1[C@H](O)C[C@@H]1[C@@]3(C)CC[C@H](O)C(C)(C)[C@@H]3CC[C@]12C` [CK, Compound K]: on IRAK1, the “ability to inhibit IRAK1” value was “ability to inhibit IRAK1”. In experiment [3], the “effect on Paclitaxel resistance (cell viability and apoptosis)” value is listed as “combat Paclitaxel resistance; also recorded: combat chemoresistance”. In experiment [4], the MDA231-LM2 mammosphere growth entry is “abolish; also recorded: inhibit TNBC metastatic growth”. The “p-IRAK1 in MDA231-LM2 cells” value at p-IRAK1 (T209) (CK 25 μM) was “inhibit p-IRAK1”.

Turning to `NS(=O)(=O)c1nn2cc(-c3ccccc3)nc2s1` [JNK inhibitor, AEG 3482], in experiment [2], the “sensitization of Paclitaxel” value is recorded as “not evident”.

Turning to `O=C(Nc1cc(Cl)cc2c1[nH]c1cnccc12)c1cccnc1` [PS1145], the “sensitization of Paclitaxel” value in experiment [2] is given as “failed to sensitize”.

As to `CC(C)=CCC[C@](C)(O[C@@H]1O[C@H](CO[C@@H]2O[C@H](CO)[C@@H](O)[C@H](O)[C@H]2O)[C@@H](O)[C@H](O)[C@H]1O)[C@H]1CC[C@]2(C)[C@@H]1[C@H](O)C[C@@H]1[C@@]3(C)CC[C@H](O[C@@H]4O[C@H](CO)[C@@H](O)[C@H](O)[C@H]4O[C@@H]4O[C@H](CO)[C@@H](O)[C@H](O)[C@H]4O)C(C)(C)[C@@H]3CC[C@]12C` [Rb1, Ginsenoside Rb1], at IRAK1, the “ability to inhibit IRAK1” value was “ability to inhibit IRAK1”.

For `CC[C@]1(O)C[C@H]2CN(CCc3c([nH]c4ccccc34)[C@@](C(=O)OC)(c3cc4c(cc3OC)N(C=O)[C@H]3[C@@](O)(C(=O)OC)[C@H](OC(C)=O)[C@]5(CC)C=CCN6CC[C@]43[C@@H]65)C2)C1` [Vincristine], in the experiment on MDA231-PR cells, the “shift of the IC50 curve” value was “marked right shift” and the “sensitivity” value is “resistant”. Also, the “IRAK1 signaling activated by chemotherapeutic agents” value at p-IRAK1 (T209) is on record as “activated”.

Turning to `N.N.[Cl][Pt][Cl]` [cisplatin], the “sensitivity” value in the experiment with MDA231-PR cells was “remained sensitive; also recorded: remained susceptible”. Besides, the “induction of p-IRAK1 by chemotherapeutic agent” value on p-IRAK1 (T209) was “not seen”.

With `COc1cccc2c1C(=O)c1c(O)c3c(c(O)c1C2=O)C[C@@](O)(C(=O)CO)C[C@@H]3O[C@H]1C[C@H](N)[C@H](O)[C@H](C)O1` [doxorubicin, Doxorubicin], in the experiment with MDA231-PR cells, the “shift of the IC50 curve” value is given as “marked right shift”. Further, at p-IRAK1 (T209), the “induction of p-IRAK1 by chemotherapeutic agent” value is “not seen” and the “IRAK1 signaling activated by chemotherapeutic agents” value is “activated”.

Regarding `Nc1ccn([C@@H]2O[C@H](CO)[C@@H](O)C2(F)F)c(=O)n1` [gemcitabine], in the experiment with MDA231-PR cells, the “sensitivity” value was “remained sensitive; also recorded: remained susceptible”.

In the case of `C[C@@H]1CN(Cc2ccc(F)cc2)[C@@H](C)CN1C(=O)c1cc2c(C(=O)C(=O)N(C)C)cn(C)c2cc1Cl` [p38 inhibitor, SCIO 469], in experiment [5], the PARP cleavage entry was “increased PARP cleavage”; the “p-p38 and MCL-1 expression” value is listed as “decrease”. Besides, the “sensitization of Paclitaxel” value in experiment [2] was “able to phenocopy IRAK-inh to sensitize Paclitaxel-induced apoptosis”.

For `C1=C/COCc2cc(ccc2OCCN2CCCC2)Nc2nccc(n2)-c2cccc(c2)COC/1` [pacritinib], the IRAK1-inhibitory activity result at IRAK1 (through communication with CTI BioPharma) is listed as “IRAK1-inhibitory activity”. The “sensitivity” value with MDA231-PR cells was “sensitive; also recorded: remained susceptible”. Also, the “effect of treatment on paclitaxel-resistant MDA-MB-231 cells” value in experiment [2] (compared with IRAK-inh) is reported as “effects similar to those seen with IRAK-inh”.
